Among the test systems are HCC-2998 colon; HL-60(TB) leukemia; EKVX NSCLC; TK-10 renal; SF-539 CNS; MCF7 breast; UACC-257 melanoma; OVCAR-4 ovarian; HOP-62 NSCLC; CCRF-CEM leukemia.
Holding throughout (assay): inhibition of tumour cell growth, NCI panel, 48 h

“And” between values parts separate entries of the source, which are not always exact repeats. Equal values may be shown once.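 Where inhibition never reached the appropriate level, the endpoint shown equals the highest concentration tested. Otherwise, values were interpolated linearly from a five-concentration, 48-hour dose response in 96-well plates. GI50 = concentration required for 50% inhibition of growth. TGI denotes the concentration required for complete inhibition of growth.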

For 8 compounds, GI50 and TGI results are on record in PubChem BioAssay (NCI).

Take `Oc1[nH]c2c(Br)cccc2c1C1=Nc2ccccc2/C1=N/OCCN1CCCC1`: the GI50 in the assay on HCC-2998 colon was 1000 nM; with HL-60(TB) leukemia, 1040 nM and 998 nM; with EKVX NSCLC, 1310 nM and 2090 nM; with TK-10 renal, 2580 nM and 1800 nM; in the assay on SF-539 CNS, 557 nM; with MCF7 breast, 781 nM and 570 nM. Also, the GI50 was 2670 nM in the assay on UACC-257 melanoma; 1140 nM in the assay with OVCAR-4 ovarian; 704 nM with HOP-62 NSCLC; 741 nM and 1120 nM in the assay with CCRF-CEM leukemia. The TGI in the assay with HCC-2998 colon is 6180 nM; in the assay on EKVX NSCLC it was more than 100000 nM; with TK-10 renal, more than 100000 nM; with SF-539 CNS, 2050 nM; in the assay on MCF7 breast it was more than 100000 nM; in the assay on OVCAR-4 ovarian, 3350 nM. The compound also returned a TGI in the assay on HOP-62 NSCLC of 2650 nM.

`CCN1C(=O)N(c2ccccc2)C2NC(=S)N(/N=C/C=C/c3ccccc3)C21` (stereo not given): the GI50 in the assay on HCC-2998 colon is 399 nM; in the assay with HL-60(TB) leukemia it was 227 nM; with EKVX NSCLC, 619 nM; in the assay on TK-10 renal it was 825 nM; in the assay with SF-539 CNS, 246 nM; in the assay with MCF7 breast it was 193 nM. Besides, the GI50 in the assay on UACC-257 melanoma was 25000 nM; in the assay with OVCAR-4 ovarian it was 4680 nM; with HOP-62 NSCLC it was 400 nM; in the assay with CCRF-CEM leukemia, 350 nM. Also, the TGI in the assay on HCC-2998 colon was more than 100000 nM; in the assay on HL-60(TB) leukemia it was 745 nM; in the assay on EKVX NSCLC it was more than 100000 nM; in the assay with TK-10 renal, more than 100000 nM; with SF-539 CNS, 854 nM; in the assay on MCF7 breast it was more than 100000 nM. In addition, the TGI in the assay on UACC-257 melanoma, in the assay on OVCAR-4 ovarian, in the assay on HOP-62 NSCLC and in the assay with CCRF-CEM leukemia was more than 100000 nM throughout.

As to `COc1ccc(C(=O)/C=C/c2ccc3c(c2)OCO3)c(OCc2ccccc2)c1`, the TGI in the assay on HCC-2998 colon was more than 100000 nM; with HL-60(TB) leukemia it was 6470 nM; in the assay on EKVX NSCLC, more than 100000 nM; with TK-10 renal it was more than 100000 nM; with SF-539 CNS it was more than 100000 nM; with MCF7 breast, more than 100000 nM. The TGI in the assay on UACC-257 melanoma was more than 100000 nM; with OVCAR-4 ovarian it was more than 61000 nM; in the assay on HOP-62 NSCLC, more than 100000 nM; in the assay with CCRF-CEM leukemia it was more than 26900 nM.

For `COc1cccc(OCCCN)c1-c1cc(Nc2cnc(C#N)cn2)n[nH]1`, the GI50 was 4.84 nM in the assay on HCC-2998 colon; 8.77 nM and 23.1 nM in the assay with HL-60(TB) leukemia; 6.5 nM with TK-10 renal; 3.66 nM in the assay with SF-539 CNS; 3.04 nM with MCF7 breast; 142 nM in the assay with UACC-257 melanoma. Besides, the GI50 is 7.93 nM and < 24.9 nM with OVCAR-4 ovarian; 13.6 nM and 30.3 nM in the assay with HOP-62 NSCLC. The TGI in the assay on HCC-2998 colon was 11200 nM; in the assay on HL-60(TB) leukemia it was 1140 nM; with EKVX NSCLC it was 45600 nM; in the assay on TK-10 renal, 417 nM; in the assay with SF-539 CNS it was 62.7 nM and 120 nM; with MCF7 breast it was 18200 nM. Further, the TGI in the assay with UACC-257 melanoma is 13100 nM; with OVCAR-4 ovarian, 14900 nM; in the assay on HOP-62 NSCLC it was 13000 nM; in the assay on CCRF-CEM leukemia, more than 73000 nM.

Regarding `C=C(C)[C@@H]1CC[C@]2(C)[C@H](CC=C3[C@@H]4[C@@H](C)[C@H](C)CC[C@]4(C(N)=O)CC[C@]32C)[C@@]1(C)CCC#N`, the GI50 was 4800 nM with HCC-2998 colon; 2350 nM in the assay with HL-60(TB) leukemia; 5220 nM in the assay with EKVX NSCLC; 8410 nM in the assay on TK-10 renal; 4790 nM with SF-539 CNS; 3590 nM in the assay on MCF7 breast. For the same compound, the GI50 is 5390 nM in the assay with UACC-257 melanoma, 3740 nM with OVCAR-4 ovarian, 7710 nM with HOP-62 NSCLC and 3730 nM with CCRF-CEM leukemia. Besides, the TGI with HCC-2998 colon was 18800 nM; in the assay on HL-60(TB) leukemia, 6030 nM; in the assay with EKVX NSCLC it was more than 100000 nM; in the assay with TK-10 renal, 91500 nM; in the assay with SF-539 CNS, 16600 nM; with MCF7 breast, more than 100000 nM. The TGI in the assay with UACC-257 melanoma was 76500 nM; in the assay on OVCAR-4 ovarian it was more than 100000 nM; with HOP-62 NSCLC, more than 100000 nM; in the assay with CCRF-CEM leukemia, 45000 nM.

For the compound `Cc1cc(NCc2cc(Nc3ccnc4cc(Cl)ccc34)ccc2F)nc(N2CCN(C)CC2)n1`, the GI50 is 2090 nM with HCC-2998 colon; 1680 nM with HL-60(TB) leukemia; 2910 nM in the assay on EKVX NSCLC; 2030 nM in the assay with TK-10 renal; 1790 nM with SF-539 CNS; 1940 nM in the assay with MCF7 breast. The GI50 is 1870 nM in the assay with UACC-257 melanoma, 1560 nM in the assay on OVCAR-4 ovarian, 1620 nM in the assay on HOP-62 NSCLC and 1120 nM with CCRF-CEM leukemia. Besides, the TGI in the assay with HCC-2998 colon came to 4350 nM; with HL-60(TB) leukemia, 3670 nM; in the assay on EKVX NSCLC it was 12600 nM; with TK-10 renal, 5490 nM; with SF-539 CNS it was 3370 nM; with MCF7 breast it was 5650 nM. Also, the TGI turned out to be 3680 nM with UACC-257 melanoma, 8570 nM in the assay on OVCAR-4 ovarian, 4790 nM in the assay with HOP-62 NSCLC and 7600 nM in the assay on CCRF-CEM leukemia.

As for `CC(C)COCC(CN(Cc1ccccc1)c1ccccc1)N1CCCC1` (stereo not given), the GI50 in the assay on HCC-2998 colon is 2250 nM; with HL-60(TB) leukemia, 3090 nM; in the assay with EKVX NSCLC, 2850 nM; with TK-10 renal, 3430 nM; in the assay on SF-539 CNS, 6460 nM; in the assay with MCF7 breast it was 2060 nM. For the same compound, the GI50 in the assay on UACC-257 melanoma is 3280 nM; with OVCAR-4 ovarian, 2040 nM; with HOP-62 NSCLC, 2820 nM; in the assay with CCRF-CEM leukemia it was 2710 nM. Moreover, the TGI with HCC-2998 colon was 6160 nM; with HL-60(TB) leukemia, 7560 nM; in the assay with EKVX NSCLC, 15100 nM; with TK-10 renal, 12000 nM; in the assay with SF-539 CNS it was 19400 nM; in the assay with MCF7 breast, 4780 nM. The TGI with UACC-257 melanoma was determined as 15300 nM; in the assay on OVCAR-4 ovarian, 11000 nM; with HOP-62 NSCLC, 14400 nM; with CCRF-CEM leukemia, 13700 nM.

With `O=P(CCCCP(=O)(c1ccccc1)c1ccccc1)(c1ccccc1)c1ccccc1.[Cl][Sn]([Cl])([c]1ccccc1)[c]1ccccc1`, the GI50 in the assay on HCC-2998 colon is 2760 nM; with HL-60(TB) leukemia it was 2040 nM; in the assay with EKVX NSCLC, 2710 nM; in the assay on TK-10 renal, 1770 nM; in the assay with SF-539 CNS, 1430 nM; with MCF7 breast, 876 nM. Moreover, the GI50 is 1680 nM in the assay on UACC-257 melanoma, 1540 nM with OVCAR-4 ovarian, 462 nM in the assay with HOP-62 NSCLC and 224 nM in the assay on CCRF-CEM leukemia. Besides, the TGI was 10100 nM in the assay on HCC-2998 colon; 6610 nM in the assay on HL-60(TB) leukemia; 7920 nM in the assay on EKVX NSCLC; 3320 nM with TK-10 renal; 3640 nM in the assay on SF-539 CNS; 2640 nM in the assay on MCF7 breast. For the same compound, the TGI in the assay with UACC-257 melanoma came out at 3310 nM; in the assay with OVCAR-4 ovarian it was 3000 nM; in the assay with HOP-62 NSCLC it was 2670 nM; with CCRF-CEM leukemia, 2390 nM.
